Where “and” joins values, the source holds several entries; their conditions need not be identical. Identical values can stand only once.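 Test compounds were applied to cells in 96-well plates for 48 hours at 5 doses. At the GI50, growth is halved. TGI: total growth inhibition.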 A value given as a limit tells only on which side of the number the result lay.

Test systems include BT-549 breast; CCRF-CEM leukemia; HOP-62 NSCLC; KM12 colon; MDA-MB-435; NCI-H23 lung; NCI/ADR-RES ovarian; RXF 393 renal; SF-295 CNS; SK-MEL-2 melanoma.
What all share (assay): growth of human tumour cells (NCI), 48 h

In the case of `CC(CN(C)C)S(=O)(=O)c1ccc(-c2cnc(N)c(C(=O)Nc3ccccc3)n2)cc1` (stereo not given), the GI50 with BT-549 breast is 6.43 µM; in the test with CCRF-CEM leukemia, 2.61 µM; in the test with HOP-62 NSCLC, 8.16 µM; in the test with KM12 colon, 11.1 µM; in the test on MDA-MB-435, 4.51 µM; with NCI-H23 lung, 3.05 µM. Moreover, the GI50 is 5.2 µM in the test on NCI/ADR-RES ovarian, 1.52 µM in the test with RXF 393 renal, 8.49 µM in the test on SF-295 CNS and 4.31 µM with SK-MEL-2 melanoma. Also, the TGI is 27.2 µM in the test with BT-549 breast; 29.6 µM in the test with CCRF-CEM leukemia; 36.2 µM in the test on HOP-62 NSCLC; 28.7 µM in the test on KM12 colon; 23.8 µM in the test with MDA-MB-435; 24.7 µM in the test on NCI-H23 lung. Besides, the TGI in the test with NCI/ADR-RES ovarian was greater than 100 µM; with RXF 393 renal, 8.4 µM; in the test on SF-295 CNS it was 25.7 µM; in the test with SK-MEL-2 melanoma, 17.6 µM.

On to `Nc1ncnc2c1c(-c1ccc(Oc3ccccc3)cc1)nn2C[C@H]1SSC[C@@H]1O`, for which the GI50 in the test on BT-549 breast was 3.63 µM; with CCRF-CEM leukemia it was 0.2 µM; in the test on HOP-62 NSCLC, 0.26 µM; in the test on KM12 colon it was 0.242 µM; in the test on MDA-MB-435, 0.162 µM; in the test with NCI-H23 lung it was 0.83 µM. Besides, the GI50 is 2.73 µM in the test on NCI/ADR-RES ovarian, 1.74 µM with RXF 393 renal, 1.95 µM in the test with SF-295 CNS and 0.262 µM in the test on SK-MEL-2 melanoma. Further, the TGI in the test with BT-549 breast amounted to 13.5 µM; in the test on CCRF-CEM leukemia, 6.28 µM; in the test on HOP-62 NSCLC it was 3.15 µM; in the test with KM12 colon, 16.4 µM; in the test with MDA-MB-435, 0.324 µM; in the test on NCI-H23 lung it was 21.4 µM. Further, the TGI with NCI/ADR-RES ovarian was determined as 37.1 µM; with RXF 393 renal, 5.75 µM; in the test with SF-295 CNS, 9.9 µM; in the test with SK-MEL-2 melanoma, 2.33 µM.

Turning to `O=P(O)(O)OCC1OC(n2cnc3c(NCc4ccco4)ncnc32)C(O)C1O` (stereo not given), the GI50 is 0.575 µM in the test on BT-549 breast; 0.315 µM in the test with CCRF-CEM leukemia; 2.24 µM with HOP-62 NSCLC; 4.44 µM in the test with KM12 colon; 2.36 µM with MDA-MB-435; 3.84 µM with NCI-H23 lung. Besides, the GI50 is 1.62 µM with NCI/ADR-RES ovarian, 0.965 µM in the test on RXF 393 renal, 2.53 µM in the test on SF-295 CNS and 11.1 µM in the test with SK-MEL-2 melanoma. Also, the TGI in the test with BT-549 breast is 3.85 µM; with CCRF-CEM leukemia it was 1.14 µM; in the test on HOP-62 NSCLC, 19.4 µM; in the test on KM12 colon, greater than 42.6 µM; in the test on MDA-MB-435, greater than 25.7 µM; in the test with NCI-H23 lung it was greater than 70.5 µM. Further, the TGI is greater than 53.7 µM in the test on NCI/ADR-RES ovarian, 4.95 µM in the test on RXF 393 renal, greater than 35.1 µM with SF-295 CNS and greater than 50.7 µM with SK-MEL-2 melanoma.

Consider `Clc1ccccc1[C@@H]1C[C@@H]2Cc3cc(Br)c4ccccc4c3N1O2`, for which the GI50 is 6.8 µM with BT-549 breast; 4.87 µM in the test on CCRF-CEM leukemia; 5.7 µM with HOP-62 NSCLC; 4.23 µM in the test with KM12 colon; 2.08 µM in the test with MDA-MB-435; 8.33 µM in the test with NCI-H23 lung. In addition, the GI50 was 2.75 µM with NCI/ADR-RES ovarian, 1.73 µM in the test with RXF 393 renal, 3.49 µM in the test with SF-295 CNS and 2.54 µM in the test on SK-MEL-2 melanoma. In addition, the TGI with BT-549 breast is greater than 100 µM; in the test with CCRF-CEM leukemia it was greater than 100 µM; with HOP-62 NSCLC, greater than 100 µM; in the test with KM12 colon, greater than 100 µM; with MDA-MB-435, 20.4 µM; in the test with NCI-H23 lung, greater than 100 µM. The TGI in the test with NCI/ADR-RES ovarian is greater than 100 µM; in the test on RXF 393 renal it was 4.92 µM; in the test with SF-295 CNS it was greater than 100 µM; with SK-MEL-2 melanoma it was 6.61 µM.

As to `Cc1cn(CCC(N)C(=O)O)c(=O)[nH]c1=O` (stereo not given), the TGI in the test with BT-549 breast, in the test on CCRF-CEM leukemia, in the test on HOP-62 NSCLC, in the test on KM12 colon, in the test on MDA-MB-435 and with NCI-H23 lung was greater than 100 µM throughout. Also, the TGI with NCI/ADR-RES ovarian, in the test with RXF 393 renal, with SF-295 CNS and in the test with SK-MEL-2 melanoma was greater than 100 µM each time.

Take `CN(C)c1ccc(C(=N)c2ccc(N(C)C)cc2)cc1`: the GI50 was 3.77 µM and 5.1 µM in the test with BT-549 breast; 5.33 µM with CCRF-CEM leukemia; 5.11 µM and 2.96 µM in the test on HOP-62 NSCLC; 1.58 µM and 1.65 µM in the test with KM12 colon; 0.375 µM and 0.382 µM with MDA-MB-435; 4.47 µM and 2.16 µM in the test on NCI-H23 lung. Besides, the GI50 in the test on NCI/ADR-RES ovarian is 1.68 µM and 1.52 µM; in the test on RXF 393 renal it was 2.93 µM and 2.86 µM; with SF-295 CNS, 2.01 µM and 3.4 µM; in the test on SK-MEL-2 melanoma, 2.24 µM and 3.92 µM. The TGI in the test on BT-549 breast was 28.9 µM and 29.2 µM; in the test with CCRF-CEM leukemia, 64.5 µM; in the test on HOP-62 NSCLC, 39.6 µM and 20.5 µM; in the test with KM12 colon, 16.2 µM and 21.5 µM; with MDA-MB-435 it was 3.19 µM and 9.02 µM; with NCI-H23 lung, 34.6 µM and 6.59 µM. For the same compound, the TGI in the test with NCI/ADR-RES ovarian was 7.42 µM and 5.04 µM; in the test with RXF 393 renal it was 12.2 µM and 19.3 µM; with SF-295 CNS, 11.9 µM and 21.9 µM; in the test on SK-MEL-2 melanoma, 8.35 µM and 16.7 µM.

(Values after PubChem BioAssay (NCI).)
